Several values for one entry are separate records, joined by “and”; a condition that tells them apart may be missing. Identical values can stand only once.
Tests used:
[1] = system: CD-1 mice; assay: Toxicity studies: expression levels of ALT and AST after ASS1 mRNA-loaded lipid nanoparticles; type: in vivo, mouse
Procedure: (§1) All studies were performed using male CD-1 mice of approximately 6-8 weeks of age at the beginning of each experiment. Samples were introduced by a single bolus tail-vein injection of an equivalent total dose of 1.0 mg/kg (or otherwise specified) of encapsulated ASS1 mRNA. Mice were sacrificed and perfused with saline at the designated time points.
All animals were euthanized by CO2 asphyxiation at designated time points post dose administration (±5%) followed by thoracotomy and terminal cardiac blood collection. Whole blood (maximal obtainable volume) will be collected via cardiac puncture on euthanized animals into serum separator tubes, allowed to clot at room temperature for at least 30 minutes, centrifuged at 22° C.±5° C. at 9300 g for 10 minutes, and the serum will be extracted. For interim blood collections, approximately 40-50 μL of whole blood will be collected via facial vein puncture or tail snip. Samples collected from non treatment animals were used as a baseline ASS1 levels for comparison to study animals.
The chiral compounds of formula I generally yielded lower expression levels of ALT and/or AST, i.e., correlating to lower liver toxicity issues, compared to stereochemically non-enriched, or stereochemically less enriched, compositions of the same lipid.

[2] = system: human ASS1 protein production in wild type mouse liver; assay: In vivo human ASS1 protein production (ELISA) via hASS1 mRNA-loaded lipid nanoparticles; details: Table 1, human ASS1 by ELISA, CD-1 mice, single bolus intravenous injection, 1.0 mg/kg encapsulated ASS1 mRNA, twenty-four hours post-injection
Procedure: as §1
The liver, spleen, kidney and heart of each mouse was harvested, apportioned into separate parts, and stored in either 10% neutral buffered formalin or snap-frozen and stored at −80° C. for analysis.
Human ASS1 ELISA: Standard ELISA procedures were followed employing mouse anti-ASS1 2D1-2E12 IgG as the capture antibody with rabbit anti-ASS1 #3285 IgG as the secondary (detection) antibody (Shire Human Genetic Therapies). Horseradish peroxidase (HRP)-conjugated goat anti-rabbit IgG was used for activation of the 3,3′,5,5′-tetramethylbenzidine (TMB) substrate solution. The reaction was quenched using 2N H2SO4 after 20 minutes. Detection was monitored via absorption (450 nm) on a Molecular Device SpectraMax instrument. Untreated mouse serum and organs and human ASS1 protein were used as negative and positive controls, respectively.
The production of human ASS1 protein via codon-optimized hASS1 mRNA-loaded lipid nanoparticles, comprising compounds of formula I, was tested in CD-1 mice as a single, bolus intravenous injection, as described above. FIG. 1 depicts the amount of human ASS1 protein detected via ELISA when treating mice human ASS1 mRNA-loaded lipid nanoparticles, with various racemic and chiral compounds of formula I, at 1.0 mg/kg doses. The mice were sacrificed twenty-four hours post-injection and organs, such as livers, were harvested.

[3] = Table 1, ASS1 mRNA-loaded lipid nanoparticles with the named cKK-E12 composition as cationic lipid, mice, intravenous
[4] = Table 2, single intravenous dose, 24 hours post, formulation cKK-E12:DOPE:Chol:DMG-PEG2K, several lots per structure, in U/L
[5] = Table 2, single intravenous dose, 24 hours post, formulation cKK-E12:DOPE:Chol:DMG-PEG2K, several lots per structure, listed as S4-RS/SR, in U/L

Structure (SMILES) | ALT [1, 3] | AST [1, 3] | ASS1 (ng/mg Total Protein) ([2]; 1 mg/kg) | ALT [1, 4] | AST [1, 4] | ASS1 (ng/mg Total Protein) [2] [ng/mg Total Protein] | ALT [1, 5] | AST [1, 5]
CCCCCCCCCC[C@@H](O)CN(CCCCC1NC(=O)C(CCCCN(C[C@H](O)CCCCCCCCCC)C[C@H](O)CCCCCCCCCC)NC1=O)C[C@H](O)CCCCCCCCCC (mixture of isomers) [R4 with Racemic Lysine Core] | 188 ± 22 U/L and 236 ± 163 U/L | 265 ± 122 U/L and 237 ± 139 U/L | 823 ± 215 ng/mg Total Protein and 568 ± 248 ng/mg Total Protein |  |  |  |  | 
CCCCCCCCCCC(O)CN(CCCC[C@@H]1NC(=O)[C@H](CCCCN(CC(O)CCCCCCCCCC)CC(O)CCCCCCCCCC)NC1=O)CC(O)CCCCCCCCCC (mixture of isomers) [Racemic —OH with SS Lysine Core] | 378 ± 58 U/L and 618 ± 503 U/L | 622 ± 76 U/L and 638 ± 273 U/L | 117 ± 80 ng/mg Total Protein and 209 ± 169 ng/mg Total Protein |  |  |  |  | 
CCCCCCCCCC[C@H](O)CN(CCCCC1NC(=O)C(CCCCN(C[C@@H](O)CCCCCCCCCC)C[C@@H](O)CCCCCCCCCC)NC1=O)C[C@@H](O)CCCCCCCCCC (mixture of isomers) [S4 with Racemic Lysine Core] | 170 ± 40 U/L and 155 ± 57 U/L | 132 ± 44 U/L and 157 ± 38 U/L | 375 ± 244 ng/mg Total Protein and 674 ± 147 ng/mg Total Protein |  |  |  |  | 
CCCCCCCCCCC(O)CN(CCCC[C@@H]1NC(=O)[C@H](CCCCN(CC(O)CCCCCCCCCC)CC(O)CCCCCCCCCC)NC1=O)CC(O)CCCCCCCCCC (stereo in doubt) [R4-S,S-cKKE12, (3S,6S)-3,6-bis(4-(bis((S)-2-hydroxydodecyl)amino)butyl)piperazine-2,5-dione] | 175 ± 102 U/L | 144 ± 35 U/L |  | 175 ± 102 | 144 ± 35 | 449 ± 105 |  | 
CCCCCCCCCC[C@@H](O)CN(CCCC[C@H]1NC(=O)[C@@H](CCCCN(C[C@H](O)CCCCCCCCCC)C[C@H](O)CCCCCCCCCC)NC1=O)C[C@H](O)CCCCCCCCCC [R4-RR] |  |  |  | 136 ± 34 | 194 ± 80 |  |  | 
CCCCCCCCCC[C@H](O)CN(CCCC[C@H]1NC(=O)[C@@H](CCCCN(C[C@@H](O)CCCCCCCCCC)C[C@@H](O)CCCCCCCCCC)NC1=O)C[C@@H](O)CCCCCCCCCC [S4-RR] |  |  |  | 152 ± 9 | 180 ± 42 |  |  | 
CCCCCCCCCC[C@H](O)CN(CCCC[C@@H]1NC(=O)[C@@H](CCCCN(C[C@@H](O)CCCCCCCCCC)C[C@@H](O)CCCCCCCCCC)NC1=O)C[C@@H](O)CCCCCCCCCC [S4-S,R-cKKE12] | 190 ± 75 U/L | 193 ± 71 U/L |  |  |  | 2303 ± 491 | 143 ± 29 and 189 ± 47 and 190 ± 75 | 240 ± 98 and 203 ± 87 and 193 ± 71
CCCCCCCCCC[C@H](O)CN(CCCC[C@@H]1NC(=O)[C@H](CCCCN(C[C@@H](O)CCCCCCCCCC)C[C@@H](O)CCCCCCCCCC)NC1=O)C[C@@H](O)CCCCCCCCCC [S4-S,S-cKKE12, (3S,6S)-3,6-bis(4-(bis((S)-2-hydroxydodecyl)amino)butyl)piperazine-2,5-dione] | 226 ± 71 U/L | 384 ± 233 U/L |  | 226 ± 71 | 384 ± 233 | 1121 ± 468 |  | 

Source: patent US11104652B2, “Stereochemically enriched compositions for delivery of nucleic acids” (TRANSLATE BIO, INC., priority 2014, dated 2021)
